Measurements published in ChEMBL document CHEMBL3603805, “Novel metal chelating molecules with anticancer activity. Striking effect of the imidazole substitution of the histidine-pyridine-histidine system” (Bioorg Med Chem, 2015).
The source made the active and inactive calls. The rule behind the calls is not given here.

What was measured:
[1] = test system: Escherichia coli; assay: Induction of DNA cleavage in Escherichia coli supercoiled pUC19 DNA assessed as formation of nicked form II DNA using FeSO4 at 30 uM after 1.5 hrs by agarose-gel electrophoresis
[2] = test system: ASPC1; assay: Cytotoxicity against human AsPC1 cells at 10 uM after 24 hrs by MTT assay; type: functional, cell-based
[3] = test system: U-87MG ATCC; assay: Cytotoxicity against human U87 cells at 10 uM after 24 hrs by MTT assay; type: functional, cell-based
[4] = test system: U-251; assay: Cytotoxicity against human U251 cells at 10 uM after 24 hrs by MTT assay; type: functional, cell-based
[5] = Stability of the compound under physiological condition; type: physicochemical

Row | SMILES | Activity [1] | Activity [2] | Activity [3] | Activity [4] | Stability [5]
1 | COC(=O)[C@H](Cc1c[nH]cn1)NCc1cc(N(C)C)cc(CN[C@@H](Cc2cn(C)cn2)C(=O)OC)n1 | Active | inactive | inactive | inactive | 
2 | COC(=O)[C@H](Cc1cn(C(c2ccccc2)(c2ccccc2)c2ccccc2)cn1)NCc1cc(N(C)C)cc(CN[C@@H](Cc2cn(C(c3ccccc3)(c3ccccc3)c3ccccc3)cn2)C(=O)OC)n1 | Active | Active | Active | Active | Stable
3 | COC(=O)[C@H](Cc1c[nH]cn1)NCc1cc(N(C)C)cc(CN[C@@H](Cc2c[nH]cn2)C(=O)OC)n1 | Active | inactive | inactive | inactive | 
4 | COC(=O)[C@H](Cc1cn(Cc2ccccc2)cn1)NCc1cc(N(C)C)cc(CN[C@@H](Cc2cn(Cc3ccccc3)cn2)C(=O)OC)n1 | Active | inactive | inactive | inactive | 
5 | COC(=O)[C@H](Cc1c[nH]cn1)NCc1cc(N(C)C)cc(CN[C@@H](Cc2cn(C(c3ccccc3)(c3ccccc3)c3ccccc3)cn2)C(=O)OC)n1 | Active | Active | Active | Active | Stable
6 | COC(=O)[C@H](Cc1cn(C)cn1)NCc1cc(N(C)C)cc(CN[C@@H](Cc2cn(C)cn2)C(=O)OC)n1 | Active | inactive | inactive | inactive | 
